From patent US12209102B2, “Heterocyclic compounds and uses thereof” (Kumquat Biosciences Inc., priority 2022, dated 2025)

Experiments:
K-Ras G12D = target: T1, K-Ras G12D (Homo sapiens, UniProt P01116, G12D); assay: HTRF resonance energy transfer assay, K-Ras G12D / SOS1 interaction; type: biochemical; conditions: HTRF assay of Example 5; read-out: IC50 against K-Ras G12D
T1 construct: made in house; host or cells: E. coli BL21 (DE3)
Outline: (§1)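 Read-out: HTRF 665/620 nm ratio (excitation 337 nm) after roughly 10 min or longer incubation, used to derive IC50. Donor anti-GST-Eu on GST-K-Ras; acceptor anti-6His-XL665 on His-hSOS1. Duplicate dose series from 10 μM down to 0.01 μM.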

K-Ras G12S = target: T2, K-Ras G12S (Homo sapiens, UniProt P01116, G12S); assay: HTRF resonance energy transfer assay, K-Ras G12S / SOS1 interaction; type: biochemical; conditions: HTRF assay of Example 5; read-out: IC50 against K-Ras G12S
T2 construct: made in house; host or cells: E. coli BL21 (DE3)
T2 sequence (P01116 1-188 isoform P01116-2 G12S): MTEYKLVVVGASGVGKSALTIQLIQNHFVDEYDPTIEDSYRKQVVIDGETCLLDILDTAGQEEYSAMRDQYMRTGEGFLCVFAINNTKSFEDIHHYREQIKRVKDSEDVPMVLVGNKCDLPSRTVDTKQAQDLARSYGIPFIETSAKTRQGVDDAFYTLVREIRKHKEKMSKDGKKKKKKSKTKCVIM
Outline: as §1

K-Ras G12V = target: T3, K-Ras G12V (Homo sapiens, UniProt P01116, G12V); assay: HTRF resonance energy transfer assay, K-Ras G12V / SOS1 interaction; type: biochemical; conditions: HTRF assay of Example 5; read-out: IC50 against K-Ras G12V
T3 construct: made in house; host or cells: E. coli BL21 (DE3)
T3 sequence (P01116 1-188 isoform P01116-2 G12V): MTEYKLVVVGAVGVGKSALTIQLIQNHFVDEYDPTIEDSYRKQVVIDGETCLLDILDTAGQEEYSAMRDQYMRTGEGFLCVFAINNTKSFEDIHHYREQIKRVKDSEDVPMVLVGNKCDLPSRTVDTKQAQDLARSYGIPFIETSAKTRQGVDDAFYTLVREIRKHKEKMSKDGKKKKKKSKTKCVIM
Outline: as §1

K-Ras WT = target: T4, K-Ras WT (Homo sapiens, UniProt P01116); assay: HTRF resonance energy transfer assay, K-Ras WT / SOS1 interaction; type: biochemical; conditions: HTRF assay of Example 5; read-out: IC50 against K-Ras WT
T4 construct: made in house; host or cells: E. coli BL21 (DE3)
T4 sequence (P01116 1-188 isoform P01116-2): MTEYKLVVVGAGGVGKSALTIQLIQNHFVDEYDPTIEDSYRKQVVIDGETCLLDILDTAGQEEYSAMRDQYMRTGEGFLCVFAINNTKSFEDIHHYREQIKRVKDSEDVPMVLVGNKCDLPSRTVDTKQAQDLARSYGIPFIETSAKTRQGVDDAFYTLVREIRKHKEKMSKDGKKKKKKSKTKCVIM
Outline: as §1

A549 cells = assay: Ras cellular assay, growth of cells with K-Ras G12S mutation (CellTiter-Glo); type: cell-based; conditions: Homo sapiens, cell growth, Example 9, G12S mutation, read-out: IC50 against A549 cells
Protocol: For example, this assay can be also used to assess a selective growth inhibition of a mutant Ras protein relative to a wildtype, or relative to a different mutant Ras protein.
A549 (ATCC CCL-185) and LS123 (ATCC CCL-255) cell lines comprise a G12S mutation and can be used to assess Ras cellular signaling in vitro, e.g., in response to the compounds herein. A549 culture medium is prepared with RPMI-1640 and 10% heat-inactivated FBS. LS123 culture medium is prepared with RPMI-1640 and 10% heat-inactivated FBS. A CellTiter-Glo (CTG) luminescent based assay (Promega) is used to assess growth of the cells, as a measurement of the ability of the compounds herein to inhibit Ras signaling in the cells. The cells (e.g., 800 per well) are seeded in their respective culture medium in standard tissue culture-treated 384-well format plates (Falcon #08-772-116) or ultra-low attachment surface 384-well format plates (S-Bio #MS-9384WZ). The day after plating, cells are treated with a dilution series (e.g., a 10 point 3-fold dilution series) of the compounds herein (e.g., approximately 40 μL final volume per well). Cell viability can be monitored (e.g., approximately 6 days later) according to the manufacturer's recommended instructions, where the CellTiter-Glo reagent is added (e.g., approximately 10 μL), vigorously mixed, covered, and placed on a plate shaker (e.g., approximately for 20 min) to ensure sufficient cell lysis prior to assessment of luminescent signal. The IC50 values are determined using the four parameter fit. The resulting IC50 value is a measurement of the ability of the compounds herein to reduce cell growth of Ras-driven cells (e.g., tumor cell lines) in vitro and/or in vivo.

SW620 cells = assay: Ras cellular assay, growth of cells with K-Ras G12V mutation (CellTiter-Glo); type: cell-based; conditions: Homo sapiens, SW-620; cell growth, Example 9, G12V mutation; read-out: IC50 against SW620 cells
Outline: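 SW620 (K-Ras G12V) cells, e.g. 800/well in RPMI-1640 with 10% heat-inactivated FBS on standard or ultra-low attachment plates, were dosed the day after plating with e.g. a 10-point 3-fold series. Viability by CellTiter-Glo luminescence about 6 days later; IC50 from four-parameter fit.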

T1 sequence (P01116 1-188 isoform P01116-2 G12D): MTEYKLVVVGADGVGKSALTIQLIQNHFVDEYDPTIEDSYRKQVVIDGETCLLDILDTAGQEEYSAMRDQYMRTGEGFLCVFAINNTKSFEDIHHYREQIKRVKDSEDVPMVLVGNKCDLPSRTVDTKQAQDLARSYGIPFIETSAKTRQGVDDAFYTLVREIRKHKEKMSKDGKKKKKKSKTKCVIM

N#Cc1c(N)sc2c(F)ccc(-c3c(Cl)c4c5c(nc(OC[C@@]67CCCN6C[C@H](F)C7)nc5c3F)N(C3CCCN(C=O)CC3)CCO4)c12 (stereo partly drawn) [Compound 601, 2-amino-4-(8-chloro-10-fluoro-2-(((2R,7aS)-2-fluorotetrahydro-1H-pyrrolizin-7a(5H)-yl)methoxy)-4-(1-formylazepan-4-yl)-5,6-dihydro-4H-[1,4]oxazepino[5,6,7-de]quinazolin-9-yl)-7-fluorobenzo[b]thiophene-3-carbonitrile]
IC50 (K-Ras G12D): < 100 nM
IC50 (K-Ras G12S): < 100 nM
IC50 (K-Ras G12V): < 100 nM
IC50 (K-Ras WT): < 100 nM
IC50 (A549 cells): < 5000 nM
IC50 (SW620 cells): < 5000 nM

CC1(C)CCC(N2CCOc3c(Cl)c(-c4ccc(F)c5sc(N)c(C#N)c45)c(F)c4nc(OC[C@@]56CCCN5C[C@H](F)C6)nc2c34)CO1 (stereo partly drawn) [Compound 603, 2-amino-4-(8-chloro-4-(6,6-dimethyltetrahydro-2H-pyran-3-yl)-10-fluoro-2-(((2R,7aS)-2-fluorotetrahydro-1H-pyrrolizin-7a(5H)-yl)methoxy)-5,6-dihydro-4H-[1,4]oxazepino[5,6,7-de]quinazolin-9-yl)-7-fluorobenzo[b]thiophene-3-carbonitrile]
IC50 (K-Ras G12D): < 100 nM
IC50 (K-Ras G12S): < 100 nM
IC50 (K-Ras G12V): < 100 nM
IC50 (K-Ras WT): < 100 nM
IC50 (A549 cells): < 5000 nM
IC50 (SW620 cells): < 5000 nM

CC(=O)NC1CC(N2CCOc3c(Cl)c(-c4ccc(F)c5sc(N)c(C#N)c45)c(F)c4nc(OC[C@@]56CCCN5C[C@H](F)C6)nc2c34)C1 (stereo partly drawn) [Compound 623, N-(3-(9-(2-amino-3-cyano-7-fluorobenzo[b]thiophen-4-yl)-8-chloro-10-fluoro-2-(((2R,7aS)-2-fluorotetrahydro-1H-pyrrolizin-7a(5H)-yl)methoxy)-5,6-dihydro-4H-[1,4]oxazepino[5,6,7-de]quinazolin-4-yl)cyclobutyl)acetamide]
IC50 (K-Ras G12D): < 100 nM
IC50 (K-Ras G12S): < 100 nM
IC50 (K-Ras G12V): < 100 nM
IC50 (K-Ras WT): < 100 nM
IC50 (A549 cells): < 5000 nM
IC50 (SW620 cells): < 5000 nM

N#CCC(=O)N1CCC(N2CCOc3c(Cl)c(-c4ccc(F)c5sc(N)c(C#N)c45)c(F)c4nc(OC[C@@]56CCCN5C[C@H](F)C6)nc2c34)C1 (stereo partly drawn) [Compound 626, 2-amino-4-(8-chloro-4-(1-(2-cyanoacetyl)pyrrolidin-3-yl)-10-fluoro-2-(((2R,7aS)-2-fluorotetrahydro-1H-pyrrolizin-7a(5H)-yl)methoxy)-5,6-dihydro-4H-[1,4]oxazepino[5,6,7-de]quinazolin-9-yl)-7-fluorobenzo[b]thiophene-3-carbonitrile]
IC50 (K-Ras G12D): < 100 nM
IC50 (K-Ras G12S): < 100 nM
IC50 (K-Ras G12V): < 100 nM
IC50 (K-Ras WT): < 100 nM
IC50 (A549 cells): < 5000 nM
IC50 (SW620 cells): < 5000 nM

N#Cc1c(N)sc2c(F)ccc(-c3c(Cl)c4c5c(nc(OC[C@@]67CCCN6C[C@H](F)C7)nc5c3F)N(C3CCCOCC3)CCO4)c12 (stereo partly drawn) [Compound 638, 2-amino-4-(8-chloro-10-fluoro-2-(((2R,7aS)-2-fluorotetrahydro-1H-pyrrolizin-7a(5H)-yl)methoxy)-4-(oxepan-4-yl)-5,6-dihydro-4H-[1,4]oxazepino[5,6,7-de]quinazolin-9-yl)-7-fluorobenzo[b]thiophene-3-carbonitrile]
IC50 (K-Ras G12D): < 100 nM
IC50 (K-Ras G12S): < 100 nM
IC50 (K-Ras G12V): < 100 nM
IC50 (K-Ras WT): < 100 nM
IC50 (A549 cells): < 5000 nM
IC50 (SW620 cells): < 5000 nM

N#Cc1c(N)sc2c(F)ccc(-c3c(Cl)c4c5c(nc(OC[C@@]67CCCN6C[C@H](F)C7)nc5c3F)N(C3CCCC3)CCO4)c12 [Compound 639, 2-amino-4-(8-chloro-4-cyclopentyl-10-fluoro-2-(((2R,7aS)-2-fluorotetrahydro-1H-pyrrolizin-7a(5H)-yl)methoxy)-5,6-dihydro-4H-[1,4]oxazepino[5,6,7-de]quinazolin-9-yl)-7-fluorobenzo[b]thiophene-3-carbonitrile]
IC50 (K-Ras G12D): < 100 nM
IC50 (K-Ras G12S): < 100 nM
IC50 (K-Ras G12V): < 100 nM
IC50 (K-Ras WT): < 100 nM
IC50 (A549 cells): < 5000 nM
IC50 (SW620 cells): < 5000 nM

N#Cc1c(N)sc2c(F)ccc(-c3c(Cl)c4c5c(nc(OC[C@@]67CCCN6C[C@H](F)C7)nc5c3F)N(C3CCCN(C(=O)[C@@H]5N[C@H]5C5CC5)C3)CCO4)c12 (stereo partly drawn) [Compound 643, 2-amino-4-(8-chloro-4-(1-((2R,3S)-3-cyclopropylaziridine-2-carbonyl)piperidin-3-yl)-10-fluoro-2-(((2R,7aS)-2-fluorotetrahydro-1H-pyrrolizin-7a(5H)-yl)methoxy)-5,6-dihydro-4H-[1,4]oxazepino[5,6,7-de]quinazolin-9-yl)-7-fluorobenzo[b]thiophene-3-carbonitrile]
IC50 (K-Ras G12D): < 100 nM
IC50 (K-Ras G12S): < 100 nM
IC50 (K-Ras G12V): < 100 nM
IC50 (K-Ras WT): < 100 nM
IC50 (A549 cells): < 5000 nM
IC50 (SW620 cells): < 5000 nM

CC(O)C1C(C)Oc2c(Cl)c(-c3ccc(F)c4sc(N)c(C#N)c34)c(F)c3nc(OC[C@@]45CCCN4C[C@H](F)C5)nc(c23)N1CC(F)F (stereo partly drawn) [Compound 646, 2-amino-4-(8-chloro-4-(2,2-difluoroethyl)-10-fluoro-2-(((2R,7aS)-2-fluorotetrahydro-1H-pyrrolizin-7a(5H)-yl)methoxy)-5-(1-hydroxyethyl)-6-methyl-5,6-dihydro-4H-[1,4]oxazepino[5,6,7-de]quinazolin-9-yl)-7-fluorobenzo[b]thiophene-3-carbonitrile]
IC50 (K-Ras G12D): < 100 nM
IC50 (K-Ras G12S): < 100 nM
IC50 (K-Ras G12V): < 100 nM
IC50 (K-Ras WT): < 100 nM
IC50 (A549 cells): < 5000 nM
IC50 (SW620 cells): < 5000 nM

C[C@H]1CN(C23CC(C2)C3)c2nc(OC[C@@]34CCCN3C[C@H](F)C4)nc3c(F)c(-c4ccc(F)c5sc(N)c(C#N)c45)c(Cl)c(c23)O1 [Compound 687, 2-amino-4-((6S)-4-(bicyclo[1.1.1]pentan-1-yl)-8-chloro-10-fluoro-2-(((2R,7aS)-2-fluorotetrahydro-1H-pyrrolizin-7a(5H)-yl)methoxy)-6-methyl-5,6-dihydro-4H-[1,4]oxazepino[5,6,7-de]quinazolin-9-yl)-7-fluorobenzo[b]thiophene-3-carbonitrile]
IC50 (K-Ras G12D): < 100 nM
IC50 (K-Ras G12S): < 100 nM
IC50 (K-Ras WT): < 100 nM
IC50 (A549 cells): < 5000 nM
IC50 (SW620 cells): < 5000 nM

N#Cc1c(N)sc2c(F)ccc(-c3c(Cl)c4c5c(nc(OC[C@@]67CCCN6C[C@H](F)C7)nc5c3F)N(C3CC(NC(=O)C(F)Cl)C3)CCO4)c12 (stereo partly drawn) [Compound 724, N-(3-(9-(2-amino-3-cyano-7-fluorobenzo[b]thiophen-4-yl)-8-chloro-10-fluoro-2-(((2R,7aS)-2-fluorotetrahydro-1H-pyrrolizin-7a(5H)-yl)methoxy)-5,6-dihydro-4H-[1,4]oxazepino[5,6,7-de]quinazolin-4-yl)cyclobutyl)-2-chloro-2-fluoroacetamide]
IC50 (K-Ras G12D): < 100 nM
IC50 (K-Ras G12S): < 100 nM
IC50 (K-Ras WT): < 100 nM
IC50 (A549 cells): < 5000 nM
IC50 (SW620 cells): < 5000 nM

N#Cc1c(N)sc2c(F)ccc(-c3c(Cl)c4c5c(nc(OC[C@@]67CCCN6C[C@H](F)C7)nc5c3F)N(C3CCC(COC(F)F)C3)CCO4)c12 (stereo partly drawn) [Compound 933, 2-amino-4-(8-chloro-4-(3-((difluoromethoxy)methyl)cyclopentyl)-10-fluoro-2-(((2R,7aS)-2-fluorotetrahydro-1H-pyrrolizin-7a(5H)-yl)methoxy)-5,6-dihydro-4H-[1,4]oxazepino[5,6,7-de]quinazolin-9-yl)-7-fluorobenzo[b]thiophene-3-carbonitrile]
IC50 (K-Ras G12S): < 100 nM
IC50 (K-Ras G12V): < 100 nM
IC50 (K-Ras WT): < 100 nM
IC50 (A549 cells): < 5000 nM
IC50 (SW620 cells): < 5000 nM
